# Measurements from the supplement of paper PMC10307832.
# Tests used:
# Assay in all cases: relative viability (nuclei count vs DMSO), 5 days (fraction); higher = more cells survive
# AZD5582 + AZD7762 = compound: C[C@@H](C(=O)N[C@@H](C1CCCCC1)C(=O)N2CCC[C@H]2C(=O)N[C@@H]3[C@@H](CC4=CC=CC=C34)OCC#CC#CCO[C@@H]5CC6=CC=CC=C6[C@@H]5NC(=O)[C@@H]7CCCN7C(=O)[C@H](C8CCCCC8)NC(=O)[C@H](C)NC)NC [AZD5582] + NC(=O)Nc1cc(-c2cccc(F)c2)sc1C(=O)N[C@H]1CCCNC1 [AZD7762] (partner 0.2 µM)
# How it was run: (§1)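 Each reported value is a median over duplicate plates. It expresses relative viability: treated-well nuclei count divided by vehicle-well nuclei count. Lung cancer cell lines in 1536-well plates were dosed by pin tool a day after seeding, alone with one drug or with a fixed anchor-drug dose plus five library-drug doses (not always all listed) in √10 steps, and nuclei were counted after 5 days.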
# AZD5582 + Tozasertib = compound: C[C@@H](C(=O)N[C@@H](C1CCCCC1)C(=O)N2CCC[C@H]2C(=O)N[C@@H]3[C@@H](CC4=CC=CC=C34)OCC#CC#CCO[C@@H]5CC6=CC=CC=C6[C@@H]5NC(=O)[C@@H]7CCCN7C(=O)[C@H](C8CCCCC8)NC(=O)[C@H](C)NC)NC [AZD5582] + Cc1cc(Nc2cc(N3CCN(C)CC3)nc(Sc3ccc(NC(=O)C4CC4)cc3)n2)n[nH]1 [Tozasertib] (partner 0.1 µM)
# How it was run: as §1
# [1] = compound: Cn1nnc2c(C(N)=O)ncn2c1=O [Temozolomide] + N=C(N)NC(=N)NCCc1ccccc1 [Phenformin] (partner 250 µM)
# How it was run: as §1
# AZD5582 + Pemetrexed = compound: C[C@@H](C(=O)N[C@@H](C1CCCCC1)C(=O)N2CCC[C@H]2C(=O)N[C@@H]3[C@@H](CC4=CC=CC=C34)OCC#CC#CCO[C@@H]5CC6=CC=CC=C6[C@@H]5NC(=O)[C@@H]7CCCN7C(=O)[C@H](C8CCCCC8)NC(=O)[C@H](C)NC)NC [AZD5582] + Nc1nc2[nH]cc(CCc3ccc(C(=O)N[C@@H](CCC(=O)O)C(=O)O)cc3)c2c(=O)[nH]1 [Pemetrexed] (partner 0.2 µM)
# How it was run: as §1
Cell Line,relative viability (AZD5582 + AZD7762; first compound 0.001581 µM),relative viability (AZD5582 + AZD7762; first compound 0.005 µM),relative viability (AZD5582 + AZD7762; first compound 0.01581 µM),relative viability (AZD5582 + AZD7762; first compound 0.05 µM),relative viability (AZD5582 + Tozasertib; first compound 0.001581 µM),relative viability (AZD5582 + Tozasertib; first compound 0.005 µM),relative viability (AZD5582 + Tozasertib; first compound 0.01581 µM),relative viability (AZD5582 + Tozasertib; first compound 0.05 µM),relative viability ([1]; first compound 0.2 µM),relative viability ([1]; first compound 0.6325 µM),relative viability ([1]; first compound 2 µM),relative viability ([1]; first compound 6.325 µM),relative viability ([1]; first compound 20 µM),relative viability (AZD5582 + Pemetrexed; first compound 0.001581 µM),relative viability (AZD5582 + Pemetrexed; first compound 0.005 µM),relative viability (AZD5582 + Pemetrexed; first compound 0.01581 µM),relative viability (AZD5582 + Pemetrexed; first compound 0.05 µM)
201T,0.479,0.579,0.556,0.447,1.01,1.07,0.961,1.13,0.491,0.449,0.497,0.376,0.456,0.311,0.299,0.298,0.281
A549,,,,,,,,,,0.161,0.136,0.147,0.177,,,,
A-427,0.682,0.703,0.748,0.637,0.201,0.198,0.221,0.167,0.314,0.364,0.39,0.246,0.267,0.931,0.92,0.978,0.89
ABC-1,0.59,1.13,0.72,0.572,0.157,0.169,0.196,0.166,0.241,0.232,0.24,0.213,0.237,,,,
BEN,0.74,0.701,0.866,0.619,0.479,0.53,0.577,0.51,0.286,0.288,0.229,0.27,0.26,0.663,0.723,0.925,0.759
CAL-12T,0.423,0.468,0.485,0.405,0.219,0.226,0.282,0.228,0.657,0.612,0.529,0.574,0.558,0.792,0.811,1.11,0.967
COR-L23,,,,,0.187,0.246,0.257,0.241,0.511,0.475,0.437,0.462,0.428,0.201,0.206,0.191,0.196
COR-L 105,,,,,0.373,0.404,0.282,0.418,0.452,0.603,0.594,0.452,0.305,1.09,1.11,1,1.25
ChaGo-K-1,0.794,0.874,0.816,0.837,0.242,0.231,0.208,0.215,0.595,0.484,0.617,0.413,0.509,0.243,0.267,0.254,0.276
EKVX,0.603,0.661,0.565,0.595,0.309,0.41,0.388,0.371,0.185,0.232,0.232,0.236,0.216,0.382,0.39,0.344,0.375
EMC-BAC-2,1.07,1.06,0.996,1.04,0.271,0.269,0.288,0.187,0.604,0.479,0.586,0.458,0.564,0.417,0.406,0.426,0.46
EPLC-272H,0.0994,,0.204,0.0859,0.15,,0.292,0.076,0.156,0.305,0.332,0.461,0.28,,,0.346,0.104
H3255,0.805,0.779,0.842,0.773,0.553,0.609,0.676,0.509,,0.385,0.344,0.403,0.185,0.492,0.563,0.512,0.573
HARA,0.204,0.261,0.315,0.225,0.0907,0.117,0.13,0.0952,0.446,0.493,0.401,0.414,0.394,0.22,0.213,0.214,0.231
HCC-15,1.06,1.05,1.2,0.615,0.375,0.42,0.473,0.459,0.502,0.531,0.519,0.418,0.513,0.227,0.197,0.218,0.211
HCC-44,0.9,1.01,1.05,1.03,0.482,0.642,0.798,0.324,0.194,0.238,0.17,0.185,0.315,0.587,0.615,0.614,0.402
HCC-78,0.691,0.601,0.468,0.417,1.42,0.515,0.428,0.529,0.701,0.755,0.713,0.656,0.751,0.931,0.878,0.901,0.949
HCC-366,0.132,0.285,0.33,0.41,0.0633,0.134,,0.155,0.639,0.647,0.631,0.621,0.62,0.119,0.155,0.15,0.152
HCC-827,0.192,0.139,0.211,0.186,0.398,0.489,0.436,0.396,0.248,0.443,0.397,0.41,0.131,0.272,0.273,0.283,0.205

Cell Line,relative viability (AZD5582 + AZD7762; first compound 0.001581 µM),relative viability (AZD5582 + AZD7762; first compound 0.005 µM),relative viability (AZD5582 + AZD7762; first compound 0.01581 µM),relative viability (AZD5582 + AZD7762; first compound 0.05 µM),relative viability (AZD5582 + Tozasertib; first compound 0.001581 µM),relative viability (AZD5582 + Tozasertib; first compound 0.005 µM),relative viability (AZD5582 + Tozasertib; first compound 0.01581 µM),relative viability (AZD5582 + Tozasertib; first compound 0.05 µM),relative viability ([1]; first compound 0.2 µM),relative viability ([1]; first compound 0.6325 µM),relative viability ([1]; first compound 2 µM),relative viability ([1]; first compound 6.325 µM),relative viability ([1]; first compound 20 µM),relative viability (AZD5582 + Pemetrexed; first compound 0.001581 µM),relative viability (AZD5582 + Pemetrexed; first compound 0.005 µM),relative viability (AZD5582 + Pemetrexed; first compound 0.01581 µM),relative viability (AZD5582 + Pemetrexed; first compound 0.05 µM)
HOP-62,0.29,0.395,0.722,0.508,0.318,0.339,0.35,0.32,0.939,0.642,0.818,0.657,0.717,0.262,0.312,0.345,0.371
LC-2-ad,0.821,1.04,0.801,0.929,0.363,0.493,0.418,0.4,0.609,0.651,0.584,0.601,0.46,0.283,0.272,0.28,0.278
LCLC-97TM1,0.193,0.221,0.225,0.154,0.206,0.235,0.206,0.187,0.427,0.487,0.492,0.418,0.412,0.185,0.205,0.16,0.16
NCI-H520,,,,,0.441,0.394,0.544,0.51,0.589,0.548,0.675,0.499,0.589,0.66,0.755,0.699,0.691
NCI-H661,,,,,0.361,0.368,0.389,0.358,0.252,0.277,0.247,0.279,0.27,0.915,0.899,0.98,0.904
NCI-H727,0.538,0.744,0.651,0.833,0.651,0.732,0.58,0.78,0.653,0.659,0.572,0.462,0.544,,,,
NCI-H1563,,,,,,,,,0.671,0.689,0.668,0.602,0.643,0.682,0.742,0.586,0.861
NCI-H1623,,,,,0.441,0.455,0.444,0.432,,0.646,0.521,0.563,0.309,,,,
NCI-H1648,0.462,0.649,,0.626,,0.549,0.37,0.615,,,,,,0.654,0.738,,0.708
NCI-H1650,,,,,0.358,0.326,0.389,0.304,0.458,0.468,0.446,0.424,0.311,0.385,0.396,0.362,0.412
NCI-H1792,0.647,0.625,0.585,1.02,,,,,0.61,0.352,0.328,0.155,0.271,0.71,0.881,0.557,1.05
NCI-H2009,,,,,0.715,0.774,0.761,0.788,0.521,0.482,0.534,0.402,0.487,1,1.01,1.03,1.08
NCI-H2023,,,,,0.209,0.345,0.499,0.305,0.431,0.442,0.467,0.401,0.449,0.198,0.216,0.26,0.183
NCI-H2228,,,,,0.191,0.27,0.333,0.161,0.411,0.508,0.307,0.3,0.351,0.281,0.285,0.305,0.21
SK-LU-1,,,,,0.229,0.205,0.343,0.13,0.635,0.57,0.461,0.296,0.258,0.73,0.5,0.978,0.285
SK-MES-1,,,,,0.771,0.785,0.888,0.805,0.752,0.68,0.7,0.729,0.682,0.904,1.01,0.975,0.939
SW 1573,,,,,0.188,0.192,0.164,0.255,0.348,0.384,0.457,0.367,0.348,0.805,0.774,0.954,0.821
UMC-11,,,,,0.207,0.203,0.196,0.203,0.378,0.357,0.378,0.326,0.301,0.73,0.848,0.755,0.864
